Source: patent publication US8030493B2, “Monovalent and divalent salts of N-(5-hydroxynicotinoil) -L-glutamic acid exhibiting psychotropic (antidepressant and anxiolytic), neuroprotective, geroprotective and cerebroprotective action” (Obschestvo S Ogranichennoy Otvetstvennostyu “Natsionalnaya …, priority 2006, dated 2011)

Key:
Type in all cases: in vivo
[1] = tested on: rats with massive cortical ischemia; assay: Model of massive cortical ischemia (occlusion of middle cerebral artery): ischemic damage of cerebral cortex; details: for Intensity of ischemic damage of cerebral cortex (slice score, points), slice 1 / Intensity of ischemic damage of cerebral cortex (slice score, points), slice 2 / Intensity of ischemic damage of cerebral cortex (slice score, points), slice 3 / Intensity of ischemic damage of cerebral cortex (slice score, points), slice 4 / Intensity of ischemic damage of cerebral cortex (slice score, points), slice 5: 72 hours after OMCA
Procedure: White nondescript male rats with body weight 350-450 g anesthetized with chloral hydrate (400 mg/kg, intraperitoneally) were used in the experiments. After ligation of left carotid occlusion of middle cerebral artery (OMCA) was made under the microscope (magnification 14.0×3.3) proximal to bifurcation to frontal and parietal branches (S. T. Chen et al., Stroke, 1986, v. 17, No 4, p. 738-743).
After the surgery the animals were randomized into 3 groups. Experimental animals received Compound I or nooglutyl intraperitoneously 30 minutes, 2, 24, and 48 hours after the surgery. Control animals at the same time points received saline (0.9% sodium chloride solution). 72 hours after OMCA the animals were decapitated. Material frozen at −20° C. was used for preparation of 5 frontal slices 2.5 mm thick, which were painted with 2,3,5-triphenyltetrazolium solution (TPTZ). Auc1 morphometric program was used to perform planimetria, determination of affected zone extent and percentage of affected zone extent in relation to volume of ipsilateral hemisphere. The surgery results in creation of vast ischemic damage of the brain cortex, which is localized within frontal-parietal and dorsal-lateral zones. To compare intensity of the changes in different slices arbitrary scale was used, with 75%, 60%, 45%, 20%, 5%, and 0% affection of hemisphere assessed as 2.5 points, 2 points, 1.5 points, 1 point, 0.5 points, and 0 points, respectively.

[2] = tested on: mice exposed to hypobaric hypoxia; assay: Acute hypobaric hypoxia in flow-exhaust chamber
Procedure: White nondescript male mice with body weight 22-28 g were used in the experiments. Each dose level was studied in 10 animals. Control animals received equivalent volume of distilled water. Nooglutyl was used as reference agent. Study compounds were administered intraperitoneally 40 minutes before the experiment.
Acute hypobaric hypoxia was simulated in flow-exhaust chamber. Pressure was measured with altimeter, and elevation speed with variometer. The animals were “elevated” at the speed 20 m/s to the stage at 11000 m. The exposure lasted 10 minutes. Then the animals were mover down to the baseline level for 5 minutes. Hypoxia with hypercapnia in hermovolume was created by placement of the animal into 200 ml hermetically sealed glass vessels. Life period of the animals under hypoxic conditions was recorded. Each group comprised 10 animals.

[3] = tested on: rats with amnesia; assay: Antiamnestic activity: passive avoidance response (PAR) with amnesia by maximum electric shock; details: for Time of presence of animals while PAR reproduction (seconds) in the dark chamber / Time of presence of animals while PAR reproduction (seconds) on the illuminated platform: rats with electric shock amnesia, 24 hours after learning; for Dose level with statistically significant antiamnestic effect of the same intensity: PAR, electric shock amnesia, intraperitoneally
Procedure: White nondescript male rats with body weight 250-280 g were used in the experiments. Each dose level was studied in 10 animals. Control animals received equivalent volume of distilled water. Nooglutyl was used as reference agent. Study compounds were administered intraperitoneally 40 minutes before the experiment. Experiment was carried out on the standard automated unit for passive avoidance response (Passive Avoidance) supplied by Lafayette Instrument Co., (USA) (Ader et al. Retention of a passive avoidance response as a function of the intensity and duration of electric shock. Psycho Sci. 1972, v. 26, p. 125-128; Voronina T. A. et al. “Textbook for Experimental (Preclinical Study) of novel pharmacological compounds”. Moscow, Medicina. 2005, p. 253-263 and 308-320). The unit was designed as small platform situated 1 m above the floor, which was illuminated with special lamp, and dark chamber with electrode floor connected with the platform. The rat was placed on illuminated platform in front of the entry to the dark chamber with its tail directed to the entry; the animal preferred dark chamber and quickly ran into it. In the dark chamber the animal received single pain stimulus with electric current (0.45 mA) and memorized that it was dangerous to enter dark chamber. Duration of the stimulus was determined from the running out of the animal from the dark chamber. To achieve amnesia maximum electric shock was used (50 Hz, 0.2 sec), which was made through corneal electrodes immediately after learning. Electric shock caused obliteration of the memory trace. Test for reproduction of passive avoidance response (PAR) (for retention of memory trace) was performed 24 hours after learning session and electric shock. The animal was placed on illuminated platform once again, and time of the presence on illuminated platform and dangerous dark chamber (no current was conducted to the floor during reproduction of PAR).
Control trained animals with reproduction of PAR without electric shock preferred to stay on illuminated platform. Obliteration of training with electric shock causes amnesia in the animals; as a result, the animals with short latent period enter dark chamber and stay there considerably longer than animals without amnesia (Table 2).

[4] = tested on: rats with hemorrhagic stroke; assay: Hemorrhagic stroke: reproduction of passive avoidance response; details: 20 mg/kg; for Increase of the share of rats with HS that retained the memory trace: PAR reproduction on Day 14, versus 8% of untreated rats with stroke
Source text: White nondescript male rats with body weight 200-250 g, which lived in vivarium and had feed (standard palletized feed) and water ad libitum, with natural alternation of day and night, were used in the experiments. Hemorrhagic stroke (local cerebral hemorrhage) was simulated according to method by A. N. Makarenko et al. (Method of local hemorrhage simulation I various structures of the brain in experimental animals. Journal Visshei Nervnoy Deyatelnosti—Journal of Higher Nervous Activities, 2002, v. 52, No 6, p. 765-768). In nembutal-anesthetized rats (40 mg/kg, i.m.) destruction of the brain tissue in capsule interna area was made with the use of special device (mandarin-knife) followed by application of blood (0.02-0.03 ml) taken from under the rat's tongue to the damaged area (within 2-3 minutes). False-operated animals underwent scalping and craniotomy. The animals were divided into 5 groups: intact rats, false-operated rats, animals with hemorrhagic stroke received nooglutyl at 20 mg/kg, and animals with hemorrhagic stroke received Compound I at 20 mg/kg. Effects were recorded within 24 hours and 14 days after the surgery. Learning ability and memory of the rats was examined in the model of passive avoidance response (PAR, Passive Avoidance supplied by Lafayette Instrument Co., USA). To determine neurological deficit in the animals Stroke-index McGrow scale modified by I. V. Gannushkina (Functional architectonics of the brain, Moscow, Medicina, 1977, 224 p.) was used. The severity of the condition was determined by the sum of the points. The number of rats with mild symptoms up to 2.5 points of Stroke-index scale (apathy, weakness of the extremities, unilateral semiptosis, tremor, circus movements) and severe manifestations of neurological disorders (3 to 10 points)—paresis of the extremities, palsy of low extremities, lateral position. The animals received single dose of nooglutyl and Compound I at the same dose 20 mg/kg intraperitoneally within 3-3.5 hours after the surgery. Controlled animals were treated with saline. At onset of the experiment each group comprised 15-20 animals. Mortality of the rats was recorded throughout the observation period (14 days). Statistical analysis was made using parametrical and non-parametrical methods and Biostat software. Nimodipin administered at 01.mg/kg according to above scheme was considered as a standard.

[5] = 40 mg/kg intraperitoneally 30 minutes, 2, 24, 48 hours after surgery
[6] = 30 mg/kg intraperitoneally 40 minutes before the experiment
[7] = 60 mg/kg intraperitoneally 40 minutes before the experiment
[8] = PAR reproduction within 24 hours
[9] = PAR reproduction within 14 days
[10] = 50 mg/kg intraperitoneally 30 minutes, 2, 24, 48 hours after surgery

**Q.** How did the “Total affected area (percentage of volume of ipsilateral hemisphere)” value ([1]; 40 mg/kg after ischemia-inducing exposure) turn out when O=C([O-])CC[C@H](NC(=O)c1cncc(O)c1)C(=O)[O-].[Ca+2] [Compound I, Calcium N-(5-hydroxynicotinoyl)-L-glutamate] was run?
**A.** The value was 10.54±1.84%.

**Q.** And the “Intensity of ischemic damage of cerebral cortex (slice score, points), slice 1” value [1, 5]?
**A.** Its value is 0.08 ± 0.01 points.

**Q.** And the “Intensity of ischemic damage of cerebral cortex (slice score, points), slice 2” value [1, 5]?
**A.** Its value is 0.92 ± 0.12 points.

**Q.** What about the “Intensity of ischemic damage of cerebral cortex (slice score, points), slice 3” value [1, 5] of the same compound?
**A.** Its value is 0.7 ± 0.19 points.

**Q.** What about the “Intensity of ischemic damage of cerebral cortex (slice score, points), slice 4” value [1, 5] of the same compound?
**A.** The value was 0.58 ± 0.14 points.

**Q.** What about the “Intensity of ischemic damage of cerebral cortex (slice score, points), slice 5” value [1, 5] of the same compound?
**A.** The value was 0.2 ± 0.15 points.

**Q.** And the “Decrease of total affected extent versus control” value ([1]; 40 mg/kg, p<0.05)?
**A.** Its value is 47.3%.

**Q.** What about the “Life interval of mice (minutes) exposed to hypobaric hypoxia” value (shortened to “Life interval of mice (minutes) exposed”) [2, 6] of the same compound?
**A.** Its value is 6.51 ± 0.82 min.

**Q.** And the “Life interval of mice (minutes) exposed” value [2, 7]?
**A.** Its value is 9.17 ± 0.91 min.

**Q.** What about the “Time of presence of animals while PAR reproduction (seconds) in the dark chamber” value (“Time of presence … in the dark chamber” for short) ([3]; 25 mg/kg intraperitoneally) of the same compound?
**A.** The value was 64.2 ± 6.4 s.

**Q.** And the “Time of presence of animals while PAR reproduction (seconds) on the illuminated platform” value (“Time of presence … on the illuminated platform” below) ([3]; 25 mg/kg intraperitoneally)?
**A.** Its value is 55.8 ± 9.3 s.

**Q.** What about the “Time of presence … in the dark chamber” value ([3]; 50 mg/kg intraperitoneally) of the same compound?
**A.** Its value is 40.6 ± 8.3 s.

**Q.** And the “Time of presence … on the illuminated platform” value ([3]; 50 mg/kg intraperitoneally)?
**A.** Its value is 79.4 ± 12.8 s.

**Q.** And the “Dose level with statistically significant antiamnestic effect of the same intensity” value [3]?
**A.** Its value is 25 mg/kg.

**Q.** What about the “Increase of the share of rats with HS that retained the memory trace” value [4] of the same compound?
**A.** Its value is 6.5 fold.

**Q.** What about the “Latent period of entry to dark chamber (c)” value (shortened to “Latent period of entry”) [4, 8] of the same compound?
**A.** The value was 128.1 ± 17.6 c.

**Q.** And the “Number of animals, which did not enter dark chamber (%)” value [4, 8]?
**A.** The value was 63%.

**Q.** And the “Latent period of entry” value [4, 9]?
**A.** The value was 98.9 ± 21.3 c.

**Q.** What about the “Number of animals, which did not enter dark chamber (%)” value [4, 9] of the same compound?
**A.** Its value is 52$$ %.

**Q.** How did the “Total affected area (percentage of volume of ipsilateral hemisphere)” value ([1]; 50 mg/kg after ischemia-inducing exposure) turn out when O=C(O)CC[C@H](NC(=O)c1cncc(O)c1)C(=O)O [Nooglutyl, N-(5-hydroxynicotinoyl)-L-glutamic acid, reference compound] was run?
**A.** The value was 14.3±2.14%.

**Q.** And the “Intensity of ischemic damage of cerebral cortex (slice score, points), slice 1” value [1, 10]?
**A.** The value was 0.28 ± 0.06 points.

**Q.** What about the “Intensity of ischemic damage of cerebral cortex (slice score, points), slice 2” value [1, 10] of the same compound?
**A.** Its value is 1.12 ± 0.17 points.

**Q.** And the “Intensity of ischemic damage of cerebral cortex (slice score, points), slice 3” value [1, 10]?
**A.** The value was 1.01 ± 0.11 points.

**Q.** And the “Intensity of ischemic damage of cerebral cortex (slice score, points), slice 4” value [1, 10]?
**A.** Its value is 0.59 ± 0.19 points.

**Q.** What about the “Intensity of ischemic damage of cerebral cortex (slice score, points), slice 5” value [1, 10] of the same compound?
**A.** The value was 0.18 ± 0.14 points.

**Q.** What about the “Life interval of mice (minutes) exposed” value [2, 6] of the same compound?
**A.** Its value is 4.1 ± 0.77 min.

**Q.** And the “Life interval of mice (minutes) exposed” value [2, 7]?
**A.** The value was 7.68 ± 0.54 min.

**Q.** And the “Time of presence … in the dark chamber” value ([3]; 25 mg/kg intraperitoneally)?
**A.** Its value is 73.3 ± 13.4 s.

**Q.** And the “Time of presence … on the illuminated platform” value ([3]; 25 mg/kg intraperitoneally)?
**A.** The value was 46.7 ± 13.4 s.

**Q.** And the “Time of presence … in the dark chamber” value ([3]; 50 mg/kg intraperitoneally)?
**A.** The value was 65.7 ± 7.1 s.

**Q.** What about the “Time of presence … on the illuminated platform” value ([3]; 50 mg/kg intraperitoneally) of the same compound?
**A.** The value was 54.3 ± 10.2 s.

**Q.** What about the “Dose level with statistically significant antiamnestic effect of the same intensity” value [3] of the same compound?
**A.** Its value is 50 mg/kg.

**Q.** What about the “Increase of the share of rats with HS that retained the memory trace” value [4] of the same compound?
**A.** The value was 5 fold.

**Q.** And the “Latent period of entry” value [4, 8]?
**A.** The value was 130.4 ± 20.1 c.

**Q.** And the “Number of animals, which did not enter dark chamber (%)” value [4, 8]?
**A.** The value was 64%.

**Q.** What about the “Latent period of entry” value [4, 9] of the same compound?
**A.** Its value is 92.2 ± 18.2 c.

**Q.** And the “Number of animals, which did not enter dark chamber (%)” value [4, 9]?
**A.** Its value is 40$ %.
